Results: article PMC12114846, “Interleukin-15Rα-Sushi-Fc Fusion Protein Co-Hitchhikes Interleukin-15 and Pheophorbide A for Cancer Photoimmunotherapy” (Pharmaceutics, 2025)

Legend:
[1] = target: T1, rILR-Fc (Homo sapiens, UniProt Q13261); assay: Microscale thermophoresis of PhA with Cy5-labeled rILR-Fc; assay type: binding; details: MST, Cy5-labeled rILR-Fc 15 nM, PBS buffer
T1 construct: the human sushi domain (amino acids 1-77) of IL-15-Rα; His tag; made in house; host or cells: Pichia pastoris GS115
Procedure: The dissociation constant (KD) between PhA and rILR-Fc was measured by the microscale thermophoresis (MST) technique, according to our previously reported method. Briefly, PhA was dissolved in dimethyl sulfoxide (DMSO) and subjected to a series of dilutions to prepare ligand solutions ranging from 0.4 μM to 0.098 nM. Cy5-labeled rILR-Fc was prepared at a concentration of 15 nM and incubated with the ligand solutions for 10 min. The resulting samples were then loaded into capillaries (NanoTemper Technologies, Munich, Germany) for MST analysis.

[2] = system: s.c. CT26-Luc tumors; assay: Live fluorescence imaging of PhA in s.c. tumor; assay type: in vivo, BALB/c mice; details: post-injection, i.v., 2.5 mg/kg of PhA
Procedure: The tumor models were established according to our previous method. For the subcutaneous (s.c.) tumor model, 2 × 10^6 CT26-Luc cells in 50 μL PBS were implanted into the right axillary fossae of anesthetized male BALB/c mice. Orthotopic models were established through the injection of 2 × 10^6 CT26-Luc cells (20 μL PBS) into the subserosal layer of the cecum.
Live fluorescence imaging was conducted using the IVIS system (Caliper Life Sciences, USA) (λex = 675 nm, λem = 720 nm) at serial time points (18 min, 30 min, 45 min, 1 h, 1.5 h, 2 h, 3 h, 4 h, 6 h, 17 h, and 27 h) post-injection. The fluorescence intensity in the tumor region was quantified by deducting the fluorescence intensity of the mouse tumor before the administration of nanoparticles from that at each time point post-administration. […] The plasma, heart, liver, spleen, lung, kidney, lymph node, skin, and tumor were harvested for IVIS imaging (λex = 675 nm, λem = 720 nm). The tissue uptake of PhA was presented through the semi-quantitative analysis of the fluorescence intensity.

[3] = Plasma pharmacokinetics of PhA after i.v. injection; assay type: in vivo, BALB/c mice; details: 2.5 mg/kg of PhA, mice
Procedure: The free PhA formulation was prepared by dissolving PhA in 0.1% NaOH (w/v) via sonication to obtain a 4 mg/mL stock solution, followed by dilution with PBS to obtain the injection dose. An alkali solution can increase the solubility of pheophorbide A applied to photodynamic therapy. Blood samples were collected from the tail veins into heparin tubes at time points of 0.1, 0.5, 0.75, 1, 1.5, 2, 3, 4, and 5 h post-injection, respectively. PhA was extracted from plasma using a mixture of acetonitrile and methanol (1:1 v/v). The mixture was vortexed for 10 s, followed by centrifugation at 12,000 rpm for 10 min at 4 °C. The supernatant was transferred to a black 96-well plate, and the concentration of PhA was determined by the Hybrid Multi-Mode Microplate Reader (λex = 400 nm, λem = 656 nm).
(§1) Pharmacokinetic parameters including the elimination half-life (t1/2), the area under the concentration–time curve to the least measurable concentration (AUC0→n), the area under the moment curve (AUMC), the mean residence time (MRT), clearance (Cl), and the steady-state volume of distribution (Vss) were calculated using non-compartmental analysis.

[4] = Skin photosensitivity after xenon light; assay type: in vivo, BALB/c mice; details: 2.5 mg/kg of PhA i.v., xenon light 5 mW/cm^2 for 25 min at 24 h post-injection
Procedure: To evaluate the skin photosensitivity, healthy BALB/c mice were depilated and randomly divided into three groups. […] Mice injected with PBS were used as controls. At 24 h post-injection, all mice were exposed to a long-arc xenon lamp (5 mW/cm^2, 25 min), which is generally used in solar simulation systems, emitting a high-intensity radiant flux with a visible spectrum closely approximating that of unfiltered daylight. A 1.5 cm × 1.5 cm section of skin was collected from the dorsal areas of the mice for H&E staining.

[5] = system: orthotopic CT26-Luc tumors; assay: Antitumor effect, survival and rechallenge; details: PhA-containing groups + PDT; rILR-Fc/rIL-15 without laser; 2.5 mg/kg of PhA, 0.3 mg/kg of rIL-15; n = 8; PBS group 32 days
Procedure: For the laser treatment, the abdominal cavity of the mouse was opened under anesthesia; then, the tumor foci on the cecum were exposed and irradiated with a 660 nm diode laser (80 mW/cm^2) through a quartz optic fiber (0.9 mm diameter) for 10 min at 35 min post-injection. The abdominal cavity was sutured after the laser treatment. […] The tumor burden was monitored via the bioluminescence signal using an IVIS system after the i.p. injection of D-luciferin (15 mg/mL, 200 μL).
Age-matched naive male BALB/c mice were used as the controls. The tumor volume and the bioluminescence signals were recorded to assess the antitumor effects following different treatments. The death point was defined as when the tumor volume reached 2000 mm^3, calculated by the following equation:(3) Vt=L × W^2/2 where Vt is the tumor volume, L is the tumor length, and W is the tumor width.

[6] = system: M-07e cells; assay: Proliferation of M-07e cells (WST-1); assay type: cell-based; details: for EC50: 72 h incubation, WST-1
Procedure: The protein of rIL-15 and rILR-Fc were analyzed by sodium dodecyl sulfate–polyacrylamide gel electrophoresis (SDS-PAGE) and a Western blot. The Western blot was performed according to our previously reported method. The primary antibody used in the Western blot was the his-tag mouse monoclonal antibody (1:5000, 66005-1-Ig, Proteintech, Wuhan, China), and the secondary antibody was horseradish peroxidase (HRP)-conjugated goat anti-mouse IgG (1:5000, 33201ES60, Yeasen, Shanghai, China). The biological activity of rIL-15 and rILR-Fc/rIL-15 was determined by their ability to stimulate the proliferation of M-07e cells.
The biological activity of the nanoparticles was determined by their ability to stimulate the proliferation of M-07e cells, as described in the Supplementary Materials. […]
gene fragment (ILR-Fc), which was then ligated into the liner pPIC9k vector. […]
Matrix-assisted laser desorption/ionization time-of-flight mass spectrometry (MALDI-TOF-MS) analysis was performed to calculate the molecular mass of rILR-Fc, with sinapic acid selected as the matrix. The released oligosaccharides were analyzed by sodium dodecyl sulfate-polyacrylamide gel electrophoresis (SDS-PAGE). […]
The biological activity of recombinant proteins or nanoparticles were determined by their ability to stimulate the proliferation of M-07e cells. […]
cells (10,000 cells/well) were plated in RPMI-1640 supplemented with 10% fetal bovine serum (FBS) in a 96-well plate and incubated with proteins (rIL-15, rILR-Fc/rIL-15, rIL-15Rα-Fc/rIL-15, rIL-15-wt, rILR-Fc/rIL-15-wt and rIL-15Rα-Fc/rIL-15-wt) at the specified concentration for 72 h at 37 °C. Cell proliferation was determined using the water-soluble tetrazolium 1 (WST-1) cell counting kit (Beyotime, Shanghai, China) following the manufacturer’s instructions. Similarity, the biological activity of nanoparticles was determined by incubated with nanoparticles at the specified concentration to stimulate the proliferation of M-07e cells. […]
Aﬃnity was measured by enzyme-linked immunosorbent assay (ELISA). […]

[7] = Serum pharmacokinetics of rIL-15 after i.v. injection (ELISA); assay type: in vivo, C57BL/6 mice; details: 0.3 mg/kg of rIL-15, mice
Procedure: For the rIL-15 group, blood was collected from the tail veins at time points of 5, 10, 15, 20, 30, 45, 60, 75, and 90 min post-injection, respectively. For the other groups, blood was collected at time points of 5, 10, 20, 30, 60, 90, 120, 180, 240, 300, and 360 min post-injection, respectively. The concentrations of rIL-15 in mouse sera were quantified by ELISA, as described above regarding the characterization of the nanoparticles.
as §1

T1 sequence (Q13261 with tags, fused parts or gaps limits assumed): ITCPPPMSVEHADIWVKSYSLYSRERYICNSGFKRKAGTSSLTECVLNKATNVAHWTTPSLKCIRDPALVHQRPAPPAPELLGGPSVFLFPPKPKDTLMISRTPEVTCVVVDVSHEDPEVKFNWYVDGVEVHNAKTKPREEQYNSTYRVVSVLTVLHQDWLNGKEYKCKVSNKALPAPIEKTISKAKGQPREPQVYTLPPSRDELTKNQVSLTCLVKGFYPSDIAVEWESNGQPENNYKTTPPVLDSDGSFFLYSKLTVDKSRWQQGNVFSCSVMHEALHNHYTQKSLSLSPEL

| Compound | Kd [1] | time of peak accumulation of PhA in the tumor [2] | AUMC of PhA [3] | Cl of PhA [3] | Vss of PhA [3] | MRT ([3]; male, BALB/c, mouse, iv) | AUC ([3]; male, BALB/c, mouse, iv, read-out: AUC0→n of PhA) | half-life ([3]; male, BALB/c, mouse, iv, read-out: t1/2 of PhA (converted)) | skin after light exposure (H&E staining) [4] | median survival time [5] | EC50 [6] | EC50 fold smaller than that of rIL-15-wt ([6]; M-07e proliferation) | AUC0→n of rIL-15 [7] | AUMC of rIL-15 [7] | Cl of rIL-15 [7] | MRT of rIL-15 [7] | Vss of rIL-15 [7] | t1/2 of rIL-15 [7] |
| --- | --- | --- | --- | --- | --- | --- | --- | --- | --- | --- | --- | --- | --- | --- | --- | --- | --- | --- |
| C=Cc1c(C)c2cc3nc(c4c5[nH]c(cc6nc(cc1[nH]2)C(C)=C6CC)c(C)c5C(=O)[C@@H]4C(=O)OC)[C@@H](CCC(=O)O)[C@@H]3C [PhA, pheophorbide A] | 200 nM | 1.5 h | 15.97 ± 4.162 μg/mL·h^2 | 8.129 ± 1.527 (μg)/(μg/mL)/h | 18.20 ± 1.111 (μg)/(μg/mL) | 2.35 ± 0.315 h | 6490 ± 1010 ng·h/mL | 1.76 ± 0.164 h | remained unchanged after light exposure | 42 days |  |  |  |  |  |  |  |  |
| rIL-15-wt: recombinant wild type IL-15 obtained from Sino biological (10360-H07E) |  |  |  |  |  |  |  |  |  |  | 3.26 nM |  |  |  |  |  |  |  |
| rIL-15: N72D-mutated human IL-15 produced in E. coli BL21 (DE3) cells |  |  |  |  |  |  |  |  |  |  | 0.92 nM | ~ 3.5 fold | 664.4 ± 196.1 ng/mL·min (×10) | 544.5 ± 73.17 ng/mL·min^2 (×10^2) | 5.766 ± 2.519 (μg)/(ng/mL)/min (×10^−4) | 9.913 ± 2.956 min | 6.351 ± 3.348 (μg)/(ng/mL) (×10^−3) | 0.3373 ± 0.0195 h |
